Data on 9 compounds can be found in patent publication US5149701A, “C-31 methylated FR-900520 cyclic hemiketal immunosuppressant agents” (Merck & Co., Inc., priority 1991, dated 1992).

In data set [1] the test system is mouse T lymphocytes stimulated with ionomycin plus PMA. Briefly: T-cell proliferation assay (ionomycin plus PMA induced T-cell stimulation). Type of data set: cell-based. The protocol:
The principle of this assay, as described in J. Immunology, Vol. 144, pp. 251-258 (1990) by F. Dumont et al, is to measure the proliferation of mouse T lymphocytes stimulated with the combination of ionomycin plus PMA. A positive sample e.g. FK-506, in this assay will inhibit T-cell proliferation, as indicated by reduced tritiated thymidine uptake.
Purified Compound I, as prepared by HPLC above, was dissolved in absolute ethanol at 1 mg/ml.
Spleens from C57B1/6 mice were taken under sterile conditions and gently dissociated in ice-cold RPMI 1640 culture medium (GIBCO, Grand Island, N.Y.) supplemented with 10% heat-inactivated fetal calf serum (GIBCO). Cells were pelleted by centrifugation at 1500 rpm for 8 minutes. Contaminating red cells were removed by treating the pellet with ammonium chloride lysing buffer (GIBCO) for 2 minutes at 4° C. Cold medium was added and cells were again centrifuged at 1500 rpm for 8 minutes. T lymphocytes were then isolated by separation of the cell suspension on nylon wool columns as follows: Nylon wool columns were prepared by packing approximately 4 grams of washed and dried nylon wool into 20 ml plastic syringes. The columns were sterilized by autoclaving at 250° F. for 30 minutes. Nylon wool columns were wetted with warm (37° C.) culture medium and rinsed with the same medium. Washed spleen cells resuspended in warm medium were slowly applied to the nylon wool. The columns were then incubated in an upright position at 37° C. for 1 hour. Non-adherent T lymphocytes were eluted from the columns with warm culture medium and the cell suspensions were spun as above.
Purified T lymphocytes were resuspended at 2.5×10^5 cells/ml in complete culture medium composed of RPMI 1640 medium with 10% heat-inactivated fetal calf serum, […], 1 mM sodium pyruvate, 2×10^-5 M 2-mercaptoethanol and 50 μg/ml gentamycin. Ionomycin was added at 250 ng/ml and PMA at 10 ng/ml. The cell suspension was immediately distributed into 96 well flat-bottom microculture plates (Costar) at 200 μl/well. The control, being the medium without test drug, and various below-indicated dilutions of the sample (above-describedpurified Compound I) to be tested were then added in triplicate wells at 20 μl/well. FR-900506 was used as a standard. The culture plates were then incubated at 37° C. in a humidified atmosphere of 5% CO2 -95% air for 44 hours. The proliferation of T lymphocytes was assessed by measurement of tritiated thymidine incorporation. After 44 hours of culturing, the cells were pulse-labelled with 2 μCi/well of tritiated thymidine (NEN, Cambridge, Mass.). After another 4 hours of incubation, cultures were harvested on glass fiber filters using a multiple sample harvester. Radioactivity of filter discs corresponding to individual wells was measured by standard liquid scintillation counting methods (Betacounter). Mean counts per minute of replicate wells were calculated and the results expressed as percent inhibition of tritiated thymidine uptake (proliferation) as follows: [formula]
1. Mouse T cell cultures were pulsed with ^3 H-thymidine for 4 hours prior to harvesting at 48 hours.

For data set [2], the target named is T1, 31-O-desmethylimmunomycin O-methyltransferase (DIMT) (Streptomyces hygroscopicus, UniProt Q9KID5).
T1 construct: about 32 kDa; monomer by gel filtration
T1 sequence (Q9KID5 1-260): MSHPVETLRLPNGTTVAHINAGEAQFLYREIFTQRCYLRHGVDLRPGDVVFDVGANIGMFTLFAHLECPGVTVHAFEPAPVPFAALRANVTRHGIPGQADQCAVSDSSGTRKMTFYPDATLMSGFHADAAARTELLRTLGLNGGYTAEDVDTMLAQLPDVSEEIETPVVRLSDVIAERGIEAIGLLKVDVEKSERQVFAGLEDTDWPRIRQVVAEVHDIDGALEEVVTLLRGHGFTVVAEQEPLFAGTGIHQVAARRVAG
Kind of data set: S-adenosyl-L-methionine:31-O-desmethylimmunomycin O-methyltransferase (DIMT) assay. Type of data set: biochemical, Streptomyces hygroscopicus var. ascomyceticus. As to conditions: for inhibition of DIMT activity: result in words. The protocol: The assay was carried out in 1 ml. mixture containing 0.025 mM 31-desmethylimmunomycin, 1 mM MgSO4 and different quantities of the enzyme source in 50 mM phosphate buffer, pH 7.5. Reaction was initiated by the addition of 1 nmole of ^14 C-SAM (S-adenosyl-L-[methyl-^14 C] methionine with the specific activity of 46 mCi/mmole. Incubation of the complete mixture was carried out at 34° C. for 20 minutes and the reaction was terminated by the addition of ethyl acetate. Product of the reaction was extracted with 2 ml of ethyl acetate and 1 ml of the extract was used for TLC and HPLC analysis. For the analysis of the radioactive reaction product (immunomycin), the ethyl acetate extract was spiked with the standard immunomycin and subjected to the TLC with a plate having plastic support. The plastic sheet was developed in chloroform:methanol (9:1) and area showing standard immunomycin under UV-light was cut and the radioactivity in the cut-strip was measured. The amount of the product formed was calculated from the measured radioactivity. For the HPLC analysis of the product of the enzyme reaction, several enzymatic reaction mixtures were pooled and the extract was subjected to the TLC analysis as above. The area on the silica gel plate showing the band having an Rf value identical with the standard immunomycin was scraped and eluted with ethyl acetate. The ethyl acetate extract was washed with water, dried under nitrogen and the residue was subjected to the HPLC analysis on Partisil 5-ODS-3 column with acetonitrile:water:phosphoric acid (65:35:0.1) as the eluting solvent. One milliliter fractions were collected and a portion of each fraction was examined for the radioactivity.
Examination of the optimal temperature, pH and metal requirement of the DIMT activity was carried out on the enzyme preparation obtained from DEAE-Sepharose column. For kinetic analysis, a preparation which had been purified through a second MonoQ column chromatography was utilized.

For data set [3] the following is noted: reputed, EPO Publication No. 0184162; cited from earlier work.
The nature of data set [4]: Physical characteristics of Compound I. Type of data set: physicochemical. As to conditions: methanol.
Setting [5] is: Mus musculus, T-lymphocyte, Example 3, HPLC purified samples, same set of experiments, read-out: IC50, biological activity.

“And” between values parts separate entries of the source, which are not always exact repeats. Identical values can stand only once. “Also recorded” adds a separate entry of the source. Like-named read-outs stand apart in the source and are kept apart here.

For orientation: IC50 means the concentration that inhibits the measured activity by half. For the compound `CC[C@@H]1C=C2COC1(O)C[C@H](O)[C@@H](C)[C@@H](/C(C)=C/[C@@H]1CC[C@@H](O)[C@H](OC)C1)OC(=O)[C@@H]1CCCCN1C(=O)C(=O)[C@]1(O)O[C@H]([C@@H](OC)C[C@@H](C)C2)[C@@H](OC)C[C@H]1C` [Compound II], the IC50 in data set [1] (setting [5]) was roughly 6 nM. The “activity in the T-cell proliferation assay” value in data set [1] (result in words) was “positive inhibition of T-cell activation; also recorded: positive results”.
With `Nc1ncnc2c1ncn2[C@@H]1O[C@H](C[C@@H](N)CC[C@H](N)C(=O)O)[C@@H](O)[C@H]1O` [sinefungin], the “inhibition of DIMT activity” value in data set [2] is given as “major inhibition”.
Regarding `O=C(O)CN(CCN(CC(=O)O)CC(=O)O)CC(=O)O` [EDTA], the “inhibition of DIMT activity” value in data set [2] is listed as “completely inhibited; also recorded: major inhibition”.
Regarding `CC[C@@H]1/C=C(\C)C[C@H](C)C[C@H](OC)[C@H]2O[C@@](O)(C(=O)C(=O)N3CCCC[C@H]3C(=O)O[C@H](/C(C)=C/[C@@H]3CC[C@@H](O)[C@H](O)C3)[C@H](C)[C@@H](O)CC1=O)[C@H](C)C[C@@H]2OC` [31-O-desmethylimmunomycin], the “apparent Vmax of DIMT” value in data set [2] (31-O-desmethylimmunomycin variable substrate, 40 uM SAM, Lineweaver-Burk) is 45.5 nmol/h/mg.
As to `N.N.O=S(=O)(O)O` [ammonium sulfate], in data set [2], the “inhibition of DIMT activity” value is on record as “inhibited”.
Same read-out and setting: with `Nc1ncnc2c1ncn2[C@@H]1O[C@H](CSCC[C@H](N)C(=O)O)[C@@H](O)[C@H]1O` [S-adenosyl-homocysteine (SAH), S-adenosyl-homocysteine] the entry was “major inhibition”.
Regarding `C=CC[C@@H]1/C=C(\C)C[C@H](C)C[C@H](OC)[C@H]2O[C@@](O)(C(=O)C(=O)N3CCCC[C@H]3C(=O)O[C@H](/C(C)=C/[C@@H]3CC[C@@H](O)[C@H](OC)C3)[C@H](C)[C@@H](O)CC1=O)[C@H](C)C[C@@H]2OC` [FR-900506, reference compound], the inhibition at 0.01 µg/mL in data set [1] (Mus musculus, T-lymphocyte, read-out: inhibition of T-cell proliferation by the standard) was found to be 99%. In addition, the “times more effective than cyclosporin” value in data set [3] is on record as 100 times.
In the case of `CC[C@@H]1/C=C(\C)C[C@H](C)C[C@H](OC)[C@H]2O[C@@](O)(C(=O)C(=O)N3CCCC[C@H]3C(=O)O[C@H](/C(C)=C/[C@@H]3CC[C@@H](O)[C@H](OC)C3)[C@H](C)[C@@H](O)CC1=O)[C@H](C)C[C@@H]2OC` [FR-900520, 17-Ethyl-1,14-dihydroxy-12-[2-(4-hydroxy-3-methoxycyclohexyl)-1-methylvinyl]-23-25-dimethoxy-13,19,21,27-tetramethyl-11,28-dioxa-4-azatricyclo [22.3.1.0^4,9]octacos-18-ene-2,3,10,16-tetraone], in data set [1] (setting [5]), the concentration for half-maximal inhibition (IC50) is roughly 1 nM.
`CC[C@@H]1C=C2COC1(O)C[C@H](O)[C@@H](C)[C@@H](/C(C)=C/[C@@H]1CC[C@@H](O)[C@H](O)C1)OC(=O)[C@@H]1CCCCN1C(=O)C(=O)[C@]1(O)O[C@H]([C@@H](OC)C[C@@H](C)C2)[C@@H](OC)C[C@H]1C` [Compound I]: the Solubility result in data set [4] was “Solubility in methanol”. For the same compound, the “effect of IL-2 on the inhibition of T-cell proliferation” value in data set [1] (50 units/ml recombinant IL-2 added at the initiation of culture) is listed as “reversed”. The inhibition at 0.0025 µM in data set [1] (Mus musculus, T-lymphocyte, 2.5 nM, splenic T-cells, ionomycin + PMA, 48 hours, read-out: Percent of Inhibition of tritiated thymidine uptake (proliferation)) is 0%. In addition, in data set [1] (Mus musculus, T-lymphocyte, 4.9 nM, splenic T-cells, ionomycin + PMA, 48 hours, read-out: Percent of Inhibition of tritiated thymidine uptake (proliferation)), the inhibition at 0.0049 µM is 0%. The inhibition at 0.0099 µM in data set [1] (Mus musculus, T-lymphocyte, 9.9 nM, splenic T-cells, ionomycin + PMA, 48 hours, read-out: Percent of Inhibition of tritiated thymidine uptake (proliferation)) came out at 39%. Further, the inhibition at 0.0197 µM in data set [1] (Mus musculus, T-lymphocyte, 19.7 nM, splenic T-cells, ionomycin + PMA, 48 hours, read-out: Percent of Inhibition of tritiated thymidine uptake (proliferation)) amounted to 65%. Also, the inhibition at 0.0394 µM in data set [1] (Mus musculus, T-lymphocyte, 39.4 nM, splenic T-cells, ionomycin + PMA, 48 hours, read-out: Percent of Inhibition of tritiated thymidine uptake (proliferation)) was determined as 89%. Further, the inhibition at 0.0788 µM in data set [1] (Mus musculus, T-lymphocyte, 78.8 nM, splenic T-cells, ionomycin + PMA, 48 hours, read-out: Percent of Inhibition of tritiated thymidine uptake (proliferation)) came to 95%. Moreover, the inhibition at 0.1576 µM in data set [1] (Mus musculus, T-lymphocyte, 157.6 nM, splenic T-cells, ionomycin + PMA, 48 hours, read-out: Percent of Inhibition of tritiated thymidine uptake (proliferation)) amounted to 98%. Moreover, the inhibition at 0.3152 µM in data set [1] (Mus musculus, T-lymphocyte, 315.2 nM, splenic T-cells, ionomycin + PMA, 48 hours, read-out: Percent of Inhibition of tritiated thymidine uptake (proliferation)) is 98%. Also, the IC50 in data set [1] (setting [5]) was roughly 11 nM; in data set [1] (Mus musculus, T-lymphocyte, Example 4, table notes, read-out: IC50), 0.0115 µg/mL and 14.5 nM; in data set [1] (Mus musculus, T-lymphocyte, generally in the range, read-out: IC50, general range), 10 to 18 nM.
